Results reported in ChEMBL document CHEMBL3885861, “Open TG-GATES”.

Species: Rattus norvegicus
Experiment: Open TG-GATES - Regimen: Single
Format: toxicity, organism-based, Sprague-Dawley
Parameters: regimen Single, gender Male, age 6 weeks
Settings: in vivo, po, 0 mg/kg, route gavage, dose level Control; for APTT / Bas / Eos / Fbg / Ht / Lym / MCHC / MCV / Mono / PT / Plat / RBC / Ret / WBC / Hb: tissue Blood; for KIDNEY_L / KIDNEY_R / KIDNEY_TOTAL: tissue Kidney; for LIVER: tissue Liver; for ALP / ALT / AST / BUN / CRE / DBIL / GLC / IP / K / LDH / RALB / TBIL / TC / TP / gamma-GTP / PL: tissue Plasma

## CN(C)CCCN1c2ccccc2CCc2ccccc21 [IMIPRAMINE]
3 h
  TERMINAL_BW: 203.9 g
  APTT: 16.9 s
  Bas: 0.2%
  Eos: 1%
  Fbg: 270.6 mg/dL
  Ht: 40.9%
  Lym: 79.2%
  MCHC: 32.3%
  MCV: 64.7 fL
  Mono: 2.8%
  PT: 15.9 s
  Plat: 112.7 x10_4/uL
  RBC: 632.8 x10_4/ul
  Ret: 8.2%
  WBC: 81.7 x10_2/uL
  KIDNEY_L: 0.9 g
  KIDNEY_R: 0.9 g
  KIDNEY_TOTAL: 1.7 g
  LIVER: 9.1 g
  ALP: 1571.6 IU/L
  ALT: 52 IU/L
  AST: 84.6 IU/L
  BUN: 9 mg/dL
  CRE: 0.2 mg/dL
  DBIL: 0.01 mg/dL
  GLC: 183.2 mg/dL
  IP: 8.9 mg/dL
  K: 4 meq/L
  LDH: 111 IU/L
  RALB: 2.6 g/dL
  TBIL: 0.07 mg/dL
  TC: 84 mg/dL
  TP: 5.4 g/dL
  gamma-GTP: 1.6 IU/L
6 h
  TERMINAL_BW: 201.5 g
  APTT: 15.5 s
  Bas: 0.4%
  Eos: 0.8%
  Fbg: 326 mg/dL
  Hb: 12.8 g/dL
  Ht: 39.2%
  Lym: 73.2%
  MCHC: 32.5%
  MCV: 63.9 fL
  Mono: 3%
  PT: 15.8 s
  Plat: 112.2 x10_4/uL
  RBC: 614.8 x10_4/ul
  Ret: 7.6%
  WBC: 95 x10_2/uL
  KIDNEY_L: 0.9 g
  KIDNEY_R: 0.9 g
  KIDNEY_TOTAL: 1.9 g
  LIVER: 9.1 g
  ALP: 1465 IU/L
  ALT: 52.8 IU/L
  AST: 99.2 IU/L
  BUN: 8.4 mg/dL
  CRE: 0.2 mg/dL
  GLC: 176.2 mg/dL
  IP: 9.4 mg/dL
  K: 4 meq/L
  LDH: 80.4 IU/L
  PL: 133.6 mg/dL
  RALB: 2.5 g/dL
  TBIL: 0.07 mg/dL
  TC: 72.6 mg/dL
  TP: 5.3 g/dL
  gamma-GTP: 1.2 IU/L
9 h
  TERMINAL_BW: 200.5 g
  APTT: 16 s
  Bas: 0.4%
  Eos: 1%
  Fbg: 291.6 mg/dL
  Hb: 12.9 g/dL
  Ht: 40.1%
  Lym: 80.8%
  MCHC: 32.3%
  MCV: 65.1 fL
  Mono: 2.4%
  PT: 15.3 s
  Plat: 110.6 x10_4/uL
  RBC: 615.4 x10_4/ul
  Ret: 8.2%
  WBC: 76.7 x10_2/uL
  KIDNEY_L: 0.9 g
  KIDNEY_R: 0.9 g
  KIDNEY_TOTAL: 1.8 g
  LIVER: 8.2 g
  ALP: 1396.6 IU/L
  ALT: 37.4 IU/L
  AST: 69.6 IU/L
  BUN: 8 mg/dL
  CRE: 0.1 mg/dL
  DBIL: 0.008 mg/dL
  GLC: 178 mg/dL
  IP: 9.9 mg/dL
  K: 4.1 meq/L
  LDH: 59 IU/L
  PL: 136 mg/dL
  RALB: 2.5 g/dL
  TBIL: 0.068 mg/dL
  TC: 74.4 mg/dL
  TP: 5.2 g/dL
  gamma-GTP: 1 IU/L
24 h
  TERMINAL_BW: 217.3 g
  APTT: 17.1 s
  Bas: 0.2%
  Eos: 1.2%
  Fbg: 265.2 mg/dL
  Ht: 41.7%
  Lym: 76.2%
  MCHC: 32.1%
  MCV: 66.7 fL
  Mono: 2.8%
  PT: 16.1 s
  Plat: 114.2 x10_4/uL
  RBC: 626.2 x10_4/ul
  Ret: 7.8%
  WBC: 93.4 x10_2/uL
  KIDNEY_L: 0.9 g
  KIDNEY_R: 0.9 g
  KIDNEY_TOTAL: 1.8 g
  LIVER: 10.2 g
  ALP: 1689.2 IU/L
  ALT: 59 IU/L
  AST: 83.4 IU/L
  CRE: 0.2 mg/dL
  DBIL: 0.02 mg/dL
  GLC: 185.4 mg/dL
  IP: 8.1 mg/dL
  K: 3.9 meq/L
  LDH: 75.2 IU/L
  RALB: 2.6 g/dL
  TBIL: 0.06 mg/dL
